Reference: patent US9433624B2, “Methods and compositions for the treatment of metabolic disorders” (BIOMARIN PHARMACEUTICAL INC., priority 2003, dated 2016)
Read-outs that look alike come from different tables or passages of the source.

What was measured:
[1] = system: humans with elevated blood levels of phenylalanine (>600 μmol/L); assay: Open label single ascending oral dose study of 6R-BH4, blood Phe before and 24 hours after each dose; type: in vivo
Source text: (§1) Criteria for inclusion in the study included (1) baseline blood Phe levels of >600 μmol/L, (2) age of at least 8 years. Criteria for exclusion from the study included (1) pregnancy or breastfeeding, (2) concurrent diseases or conditions that require medication or treatment, (3) concurrent treatment with any drug known to inhibit folate synthesis, and (4) treatment with any investigational drug within 30 days. Each of the patients also was identified as having a mutation in the phenylalanine hydroxylase (PAH) gene. Study subjects underwent baseline assessments, including medical history with assessment of phenylketonuria (PKU) or hyperphenylalaninemia (HPA) related signs and symptoms, physical examinations, vital signs, serum amino acid (i.e., phenylalanine, tyrosine, and tryptophan) blood levels, and routine laboratory tests (chemistry, hematology, and urinalysis) before inclusion in the study.
Within a maximum of 4 weeks following the completion of baseline assessments, eligible subjects began the first stage of the study. Single ascending doses of 10 mg/kg, 20 mg/kg and 40 mg/kg of 6R-BH4 were administered orally, with a washout period of at least 7 days between each dose, and subjects were monitored 24 hours after each dose. Subjects underwent a safety assessment and blood amino acid (i.e, phenylalanine, tyrosine, and tryptophan) level measurements before and 24 hours after each 6R-BH4 dose. Blood pressure was measured 30 minutes and 1 hour after each dose. Safety assessments included physical examinations, vital signs, serial assessment of PKU or HPA related signs and symptoms, recording of adverse events, and monitoring of changes in laboratory parameters (chemistry, hematology, and urinalysis). Subjects were instructed to continue their usual diet without any modification, and to record daily intake of food and beverages throughout the study.

[2] = system: humans with elevated blood levels of phenylalanine (>600 μmol/L); assay: Multiple dose study (7-day loading test), 6R-BH4 daily for 7 days, blood Phe and tyrosine; type: in vivo
Source text: as §1
After the first stage of the study was completed, subjects entered the second stage of the study, during which they received 10 mg/kg of 6R-BH4 daily in an oral dosage form, for a total of 7 days. After a washout period of at least 7 days, each subject received 20 mg/kg of 6R-BH4 daily for a total of 7 days. During the second stage of the study, subjects were monitored before dosing, at 24 and 72 hours after first dose, and on the 7th day of dosing at each of the two dose levels. Monitoring included a safety assessment as described above, measurement of serum blood amino acid (i.e, phenylalanine, tyrosine, and tryptophan) levels and evaluation of phenylalanine and tyrosine oral intake. Subjects were instructed to continue their usual diet without any modification, and to record daily intake of food and beverages throughout the study.
Of those 14 patients, 10 (71%) responded favorably to 10 mg/kg/day. […] The individual blood Phe responses to multiple doses of 10 mg/kg BH4 are shown in 11 adults (FIG. 17) and 9 children (FIG. 19). The individual blood Phe responses to multiple doses of 20 mg/kg BH4 are shown in 11 adults (FIG. 18) and in 9 children (FIG. 20).

[3] = Schircks dihydrochloride salt, oral tablets; cited from earlier work
[4] = room temperature; cited from earlier work
[5] = Storage stability of the polymorph form of BH4×2HCl, quality checked by HPLC; type: physicochemical; conditions: minigrip bag, 40° C., 75% relative humidity
Description: The polymorph forms of BH4 described in the Moser Applications are a very stable crystalline form of the drug. The polymorph form can be easily filtered off, dried and ground to particle sizes desired for pharmaceutical formulations. These outstanding properties renders this polymorph form especially feasible for pharmaceutical application. The stability of the polymorph form of BH4 was determined after the BH4×2HCl (the polymorph form) had been stored for 8 months in a minigrip bag at 40° C. and 75% relative humidity. Quality was checked in different intervals throughout the 8 month period by HPLC.

[6] = for hygroscopicity / water adsorbed (content): dihydrochloride; for water adsorbed (content): released on heating at 10° C./minute

SMILES: C[C@H](O)[C@H](O)[C@H]1CNc2nc(N)[nH]c(=O)c2N1 [6R-BH4, (6R)-5,6,7,8-tetrahydrobiopterin]
- blood Phe decline from baseline ([1]; single oral dose 10 mg/kg): 10%±0.26%
- blood Phe mean decline from baseline ([1]; single oral dose 20 mg/kg): 17%±0.28%
- blood Phe mean decline from baseline ([1]; single oral dose 40 mg/kg): 27%±0.25%
- responders to 20 mg/kg who also responded to the lower dose (30% or greater reduction in blood Phe) ([2]; 10 mg/kg/day, 10 of the 14 responders): 71%
- patients with sustained decrease in blood Phe concentration (responsive = decline of 30%) ([2]; 20 mg/kg daily, 14/20 patients): 70 % of the patients
- increase in blood tyrosine from baseline, some patients ([2]; 10 and 20 mg/kg daily, some but not all patients): > 80%
- half-life [3]: approximately 3.5 hours
- shelf-life [4]: < 8 h

SMILES: C[C@H](O)[C@H](O)[C@H]1CNc2nc(N)[nH]c(=O)c2N1.Cl.Cl [BH4×2HCl, (6R)-L-erythro-tetrahydrobiopterin dihydrochloride]
- HPLC [% area] ([5]; 0 months (at the beginning)): 98.4 % area
- HPLC [% area] ([5]; after 1 month): 98.3 % area
- HPLC [% area] ([5]; after 1 week): 99.4 % area
- HPLC [% area] ([5]; after 3 months): 99.1 % area
- HPLC [% area] ([5]; after 8 months): 98.1 % area

SMILES: C[C@H](O)[C@H](O)[C@H]1CNc2nc(N)[nH]c(=O)c2N1.Cl.Cl [Form E, (6R)-L-erythro-tetrahydrobiopterin dihydrochloride]
- hygroscopicity [6]: non-hygroscopic

SMILES: C[C@H](O)[C@H](O)[C@H]1CNc2nc(N)[nH]c(=O)c2N1.Cl.Cl [Hydrate form C, (6R)-L-erythro-tetrahydrobiopterin dihydrochloride]
- hygroscopicity ([6]; hydrate form C): slightly hygroscopic

SMILES: C[C@H](O)[C@H](O)[C@H]1CNc2nc(N)[nH]c(=O)c2N1.Cl.Cl [Polymorph A, (6R)-L-erythro-tetrahydrobiopterin dihydrochloride]
- hygroscopicity [6]: slightly hygroscopic
- water adsorbed (content) [6]: about 3 percent by weight
- phase equilibration test of suspensions: form after filtration and air drying ([6]; tetrahydrofuran or tertiary-butyl methyl ether, five days and 18 hours respectively, under nitrogen, room temperature): unchanged polymorph form A

SMILES: C[C@H](O)[C@H](O)[C@H]1CNc2nc(N)[nH]c(=O)c2N1.Cl.Cl [Polymorph B, (6R)-L-erythro-tetrahydrobiopterin dihydrochloride]
- hygroscopicity [6]: slightly hygroscopic

SMILES: C[C@H](O)[C@H](O)[C@H]1CNc2nc(N)[nH]c(=O)c2N1.Cl.Cl [Polymorph F, (6R)-L-erythro-tetrahydrobiopterin dihydrochloride]
- hygroscopicity [6]: slightly hygroscopic
- water adsorbed (content) [6]: about 3 percent by weight

SMILES: C[C@H](O)[C@H](O)[C@H]1CNc2nc(N)[nH]c(=O)c2N1.Cl.Cl [Polymorph K, (6R)-L-erythro-tetrahydrobiopterin dihydrochloride]
- hygroscopicity [6]: slightly hygroscopic
- water adsorbed (content) [6]: about 2.0 percent by weight

SMILES: C[C@H](O)[C@H](O)[C@H]1CNc2nc(N)[nH]c(=O)c2N1.Cl.Cl [hydrate D, (6R)-L-erythro-tetrahydrobiopterin dihydrochloride]
- hygroscopicity ([6]; hydrate form D): slightly hygroscopic

SMILES: C[C@H](O)[C@H](O)[C@H]1CNc2nc(N)[nH]c(=O)c2N1.Cl.Cl [polymorph J, (6R)-L-erythro-tetrahydrobiopterin dihydrochloride]
- hygroscopicity [6]: slightly hygroscopic
